Data: the COVID Moonshot data (paper PMC7615835)
Where “and” joins values, the source holds several entries; their conditions need not be identical. Identical values can stand only once.

The compounds below were run against SARS-CoV-2 Main Protease (SARS-CoV-2) (UniProt P0DTD1).
In the case of `COc1cc(C)ccc1N(C(=O)c1ccco1)C(C(=O)NCCc1cccc(F)c1)c1cccnc1` (stereo not given), the IC50 is reported as greater than 99.5 µM.
In the case of `Cc1ccncc1NC(=O)Cc1cc(Cl)cc(CNS(C)(=O)=O)c1`, the IC50 is reported as 16.6 µM.
Work on `N#Cc1cccc(CN2CCN(C(=O)CCl)CC2)c1` yielded an IC50 of 19.7 µM.
`CC(C)(C)c1ccc(N(C(=O)c2cc(=O)[nH][nH]2)C(C(=O)NCCc2cccc(F)c2)c2cccnc2)cc1` (stereo not given) was tested, and the IC50 was 39.7 µM.
`CS(=O)(=O)Nc1cccc(C2=NN(C(=O)CCl)C(c3ccccc3)C2)c1` (stereo not given) gave an IC50 of 5.83 µM.
For `O=C(Nc1cncc2ccncc12)C1CCOc2cc(F)c(Cl)cc21` (stereo not given), the IC50 was 1.1 µM.
Compound `Cc1ccc(S(=O)(=O)NCCNC(=O)N2CCN(S(=O)(=O)N3CCCC3)CC2)cc1` has an IC50 greater than 99.5 µM.
In the case of `COc1ccc(-c2ccccc2S(=O)(=O)N2CCN(C(=O)CCl)CC2)cc1`, the IC50 is reported as 0.551 µM.
`C=CC(=O)N(c1ccc(C(C)(C)C)cc1)C(C(=O)NCCSC)c1cccnc1` (stereo not given) showed an IC50 of 20.2 µM.
With `Cc1nc2ccc(NS(=O)(=O)c3cccc4nonc34)cc2o1` the IC50 was greater than 99.5 µM.
In the case of `O=C(CC1(C(=O)Nc2cncc3ccccc23)CCOc2ccc(Cl)cc21)N1CCOCC1CC(F)F` (stereo not given), the IC50 is reported as 7.68 µM and 12.6 µM.
`O=C(Nc1n[nH]c2ccncc12)C1CCOc2ccc(Cl)cc21` (stereo not given) gave an IC50 of 70.3 µM.
Work on `Cc1ccnnc1NC(=O)Cc1cccc(Cl)c1` yielded an IC50 greater than 99.5 µM.
Compound `O=C(Nc1cncc2ccccc12)C1CCOc2c(OCC3CC3)cc(Cl)cc21` (stereo not given) has an IC50 greater than 2.49 µM.
`Cn1nncc1CC(=O)NC(c1ccccc1)c1nc2ccccc2n1C` (stereo not given) was tested, and the IC50 was 35.7 µM.
Work on `O=C(c1cc(=O)[nH]c2ccccc12)N1CCN(Cc2cccc(C(F)(F)F)c2)CC1` yielded an IC50 of 34.2 µM.
Work on `O=S(=O)(c1cc2c(cc1OCc1ccccc1)OCO2)N1CCOCC1` yielded an IC50 greater than 99.5 µM.
Compound `O=C(Cc1cc(Cl)cc(NCCc2ccc(Cl)cc2Cl)c1)Nc1cncc2ccccc12` has an IC50 of 3.91 µM.
`CS(=O)(=O)N1CCc2ccc(CN3CCN(C(=O)CCl)CC3)cc2C1` gave an IC50 of 40.2 µM.
Work on `O=C(Nc1[nH]nc2cccnc12)C1CCOc2ccc(Cl)cc21` (stereo not given) yielded an IC50 greater than 99.5 µM.
With `CS(=O)(=O)N1CCN(C(=O)CCl)CC1c1ccccc1` (stereo not given) the IC50 was 10.6 µM.
`C1=C(c2c[nH]c3ccccc23)CCN(Cc2ccno2)C1` gave an IC50 greater than 99.5 µM.
Work on `O=C(Cc1cc(Cl)cc(Nc2ccc(I)c(F)c2)c1)Nc1cncc2ccccc12` yielded an IC50 of 2.04 µM.
Compound `COc1cc(CN2CCN(C(=O)CCl)CC2)c2ccccc2c1` has an IC50 of 2.75 µM.
`O=C(Cc1cc(Cl)cc(NCc2cc(F)ccc2Br)c1)Nc1cncc2ccccc12` gave an IC50 of 1.88 µM.
With `CC(C)CS(=O)(=O)N1Cc2ccc(Cl)cc2C(C(=O)Nc2cncc3ccc(C(C)(C)O)cc23)C1` (stereo not given) the IC50 was 1.22 µM.
`N#Cc1nccn1CCc1cccc(Cl)c1` showed an IC50 greater than 99.5 µM.
Work on `CC(C)=CCC/C(C)=C/CC/C(C)=C/CC/C(C)=C/Cc1cc(O)cc2c1OC(=O)C2=C(C)C` yielded an IC50 greater than 99.5 µM.
Compound `O=C(Nc1cncc2ccccc12)C1CCOc2c(OCc3ccccc3)cc(Cl)cc21` (stereo not given) has an IC50 of 36.5 µM.
Compound `N#Cc1ccc2c(NC(=O)Cc3cccc(Cl)c3)cncc2c1` has an IC50 of 9 µM.
`Cc1cnnn1-c1ccc(N(C(=O)c2cocn2)C(C(=O)NCCc2cccc(F)c2)c2cccnc2)cc1` (stereo not given) was tested, and the IC50 was 28.4 µM.
`COc1ccccc1CN(C(=O)c1cnc[nH]1)C(C(=O)NCCc1cccc(F)c1)c1cccnc1` (stereo not given) showed an IC50 greater than 99 µM.
Work on `Nc1nn(C(=O)C2CCOc3ccc(Cl)cc32)c2cc(F)ccc12` (stereo not given) yielded an IC50 greater than 99.5 µM.
For `CC(C)(C)OC(=O)N1CCC(NC(=O)C(c2cccnc2)N(C(=O)c2cocn2)c2ccc(C(C)(C)C)cc2)C1` (stereo not given), the IC50 was 3.65 µM.
Work on `O=C(NCCc1ccccc1)[C@@H]1CN(C(=O)CCl)CCN1S(=O)(=O)c1ccsc1` (stereo in doubt) yielded an IC50 of 1.28 µM.
In the case of `Cc1ccccc1CN(C(=O)c1cocn1)C(C(=O)NCCc1cccc(F)c1)c1cccnc1` (stereo not given), the IC50 is reported as greater than 99.5 µM.
Work on `O=C(Cc1cc(Cl)cc(Nc2c(F)c(F)cc(F)c2F)c1)Nc1cncc2ccccc12` yielded an IC50 of 2.03 µM.
`O=C(CCl)N1CCCN(S(=O)(=O)Cc2ccccc2)CC1` gave an IC50 of 8.81 µM.
`O=C1NCC(C(=O)Nc2cnn3ccccc23)c2cc(Cl)ccc21` (stereo not given) gave an IC50 of 7.09 µM.
In the case of `O=c1[nH]c(Cc2cccc(C(F)(F)F)c2)nc2cnccc12`, the IC50 is reported as greater than 99.5 µM.
With `O=C(Nc1cccc2cc[nH]c12)c1cccc2[nH]c(=O)oc12` the IC50 was greater than 99.5 µM.
For `COc1ccc(-c2cc(COc3cc(Cl)cc(CC(=O)Nc4cnccc4C)c3)on2)cc1`, the IC50 was 62.7 µM and 81.5 µM.
`O=C(Cc1cc(Cl)cc(Nc2ccc(F)cc2I)c1)Nc1cncc2ccccc12` gave an IC50 of 1.76 µM.
Work on `Cc1sc(Nc2cc(Cl)cc(CC(=O)Nc3cncc4ccccc34)c2)nc1-c1ccc(Cl)cc1` yielded an IC50 of 2.82 µM.
Work on `Cc1ccncc1NC(=O)Cc1cc(Cl)cc(OCc2ncn[nH]2)c1` yielded an IC50 of 37 µM.
Work on `CN(Cc1cccc([N+](=O)[O-])c1)c1cc(Cl)cc(CC(=O)Nc2cncc3ccccc23)c1` yielded an IC50 of 1.53 µM.
Work on `COc1c(C(=O)N(c2ccc(C(C)(C)C)cc2)C(C(=O)NCCc2cccc(F)c2)c2cccnc2)[nH]c(=O)[nH]c1=O` (stereo not given) yielded an IC50 greater than 99.5 µM.
Work on `O=C(Cc1cccc(Cl)c1)Nc1cncn2cnnc12` yielded an IC50 greater than 99.5 µM.
`N#CC1(CS(=O)(=O)N2Cc3ccc(Cl)cc3C3(CCN(c4cncc5ccc(OCCN6CCCC6)cc45)C3=O)C2)CC1` (stereo not given) showed an IC50 of 0.225 µM.
For `CC(NC(=O)CN)(C(=O)Nc1cncc2ccccc12)c1ccc(Cl)c(Cl)c1` (stereo not given), the IC50 was 6.21 µM and 1.84 µM.
